{"source": "ChEMBL document CHEMBL1255495", "about": "“Experimental conditions that enhance potency of an antibacterial oligo-acyl-lysyl” (2010)", "key": {"[1]": {"system": "Staphylococcus aureus", "assay": "Antibacterial activity against Staphylococcus aureus ATCC 25923 at pH 7 after 24 hrs by microdilution method", "assay_type": "functional", "conditions": "ATCC 25923, 24 h"}, "[2]": {"system": "Escherichia coli", "assay": "Antibacterial activity against Escherichia coli O157:H7 ATCC 43894 after 24 hrs by microdilution method in presence of 80 mM MgCl2", "assay_type": "functional", "conditions": "O157:H7 ATCC 43894, 24 h"}, "[3]": {"system": "Escherichia coli", "assay": "Antibacterial activity against Escherichia coli O157:H7 ATCC 43894 after 24 hrs at 25 degC by microdilution method", "assay_type": "functional", "conditions": "O157:H7 ATCC 43894, 24 h"}, "[4]": {"system": "Listeria monocytogenes", "assay": "Antibacterial activity against Listeria monocytogenes ATCC 19115 assessed as reduction in bacterial population at 0.01 to 10 uM up to 15 mins by time-kill assay", "assay_type": "functional"}, "[5]": {"system": "Staphylococcus aureus", "assay": "Antibacterial activity against methicillin-resistant Staphylococcus aureus isolate 15903 after 24 hrs by microdilution method in presence of 1030 mM NaCl", "assay_type": "functional", "conditions": "isolate 15903, 24 h"}, "[6]": {"system": "Listeria monocytogenes", "assay": "Antibacterial activity against Listeria monocytogenes ATCC 19115 after 24 hrs by microdilution method in presence of 20 mM MgCl2", "assay_type": "functional", "conditions": "ATCC 19115, 24 h"}, "[7]": {"system": "Listeria monocytogenes", "assay": "Antibacterial activity against Listeria monocytogenes ATCC 19115 after 24 hrs by microdilution method in presence of 515 mM NaCl", "assay_type": "functional", "conditions": "ATCC 19115, 24 h"}, "[8]": {"system": "Staphylococcus aureus", "assay": "Antibacterial activity against methicillin-resistant Staphylococcus aureus isolate 15903 after 24 hrs at 48 degC by microdilution method", "assay_type": "functional", "conditions": "isolate 15903, 24 h"}, "[9]": {"system": "Staphylococcus aureus", "assay": "Antibacterial activity against methicillin-resistant Staphylococcus aureus isolate 15903 after 24 hrs by microdilution method in presence of 170 mM NaCl", "assay_type": "functional", "conditions": "isolate 15903, 24 h"}, "[10]": {"system": "Listeria monocytogenes", "assay": "Antibacterial activity against Listeria monocytogenes ATCC 19115 after 24 hrs by microdilution method in presence of 1030 mM NaCl", "assay_type": "functional", "conditions": "ATCC 19115, 24 h"}, "[11]": {"system": "Staphylococcus aureus", "assay": "Antibacterial activity against methicillin-resistant Staphylococcus aureus isolate 15903 after 24 hrs by microdilution method in presence of 515 mM NaCl", "assay_type": "functional", "conditions": "isolate 15903, 24 h"}, "[12]": {"system": "Lipid bilayer", "assay": "Binding affinity to phospholipid membrane model at pH 7 by surface plasmon resonance in presence of 140 mM NaCl"}, "[13]": {"system": "Staphylococcus aureus", "assay": "Antibacterial activity against methicillin-resistant Staphylococcus aureus isolate 15903 after 24 hrs at 37 degC by microdilution method", "assay_type": "functional", "conditions": "isolate 15903, 24 h"}, "[14]": {"system": "Escherichia coli", "assay": "Antibacterial activity against Escherichia coli O157:H7 ATCC 43894 after 24 hrs by microdilution method in presence of 160 mM MgCl2", "assay_type": "functional", "conditions": "O157:H7 ATCC 43894, 24 h"}, "[15]": {"system": "Staphylococcus aureus", "assay": "Antibacterial activity against methicillin-resistant Staphylococcus aureus isolate 15903 at pH 5.5 after 24 hrs by microdilution method", "assay_type": "functional", "conditions": "isolate 15903, 24 h"}, "[16]": {"system": "Staphylococcus aureus", "assay": "Antibacterial activity against methicillin-resistant Staphylococcus aureus isolate 15903 at pH 8.5 after 24 hrs by microdilution method", "assay_type": "functional", "conditions": "isolate 15903, 24 h"}, "[17]": {"system": "Escherichia coli", "assay": "Antibacterial activity against Escherichia coli O157:H7 ATCC 43894 at pH 7 after 24 hrs by microdilution method", "assay_type": "functional", "conditions": "O157:H7 ATCC 43894, 24 h"}, "[18]": {"system": "Escherichia coli", "assay": "Antibacterial activity against Escherichia coli O157:H7 ATCC 43894 after 24 hrs by microdilution method in presence of 515 mM NaCl", "assay_type": "functional", "conditions": "O157:H7 ATCC 43894, 24 h"}, "[19]": {"system": "Listeria monocytogenes", "assay": "Antibacterial activity against Listeria monocytogenes ATCC 19115 after 24 hrs by microdilution method in presence of 170 mM NaCl", "assay_type": "functional", "conditions": "ATCC 19115, 24 h"}, "[20]": {"system": "Escherichia coli", "assay": "Antibacterial activity against Escherichia coli O157:H7 ATCC 43894 after 24 hrs at 37 degC by microdilution method", "assay_type": "functional", "conditions": "O157:H7 ATCC 43894, 24 h"}, "[21]": {"system": "Staphylococcus aureus", "assay": "Antibacterial activity against methicillin-resistant Staphylococcus aureus isolate 15903 assessed as reduction in bacterial population at 0.01 to 10 uM up to 15 mins by time-kill assay", "assay_type": "functional"}, "[22]": {"system": "Escherichia coli", "assay": "Antibacterial activity against Escherichia coli O157:H7 ATCC 43894 after 24 hrs by microdilution method in presence of 85 mM NaCl", "assay_type": "functional", "conditions": "O157:H7 ATCC 43894, 24 h"}, "[23]": {"system": "Listeria monocytogenes", "assay": "Ratio of MIC for Listeria monocytogenes ATCC 19115 in presence of 85 mM NaCl to MIC for Listeria monocytogenes ATCC 19115 at pH 8.5 after 24 hrs at 48 degC in presence of 85 mM NaCl", "assay_type": "functional"}, "[24]": {"system": "Staphylococcus aureus", "assay": "Antibacterial activity against methicillin-resistant Staphylococcus aureus isolate 15903 after 24 hrs by microdilution method in presence of 260 mM NaCl", "assay_type": "functional", "conditions": "isolate 15903, 24 h"}, "[25]": {"system": "Escherichia coli", "assay": "Antibacterial activity against Escherichia coli O157:H7 ATCC 43894 at pH 8.5 after 24 hrs by microdilution method", "assay_type": "functional", "conditions": "O157:H7 ATCC 43894, 24 h"}, "[26]": {"system": "Escherichia coli", "assay": "Ratio of MIC for Escherichia coli O157:H7 ATCC 43894 in presence of 85 mM NaClsto MIC for Escherichia coli O157:H7 ATCC 43894 at pH 8.5 after 24 hrs at 48 degC in presence of 85 mM NaCl", "assay_type": "functional"}, "[27]": {"system": "Staphylococcus aureus", "assay": "Antibacterial activity against methicillin-resistant Staphylococcus aureus isolate 15903 at pH 7 after 24 hrs by microdilution method", "assay_type": "functional", "conditions": "isolate 15903, 24 h"}, "[28]": {"system": "Escherichia coli", "assay": "Antibacterial activity against Escherichia coli O157:H7 ATCC 43894 after 24 hrs at 48 degC by microdilution method", "assay_type": "functional", "conditions": "O157:H7 ATCC 43894, 24 h"}, "[29]": {"system": "Escherichia coli", "assay": "Antibacterial activity against Escherichia coli O157:H7 ATCC 43894 at pH 3.5 after 24 hrs by microdilution method", "assay_type": "functional", "conditions": "O157:H7 ATCC 43894, 24 h"}}, "note": "The source made the active and inactive calls. The calls are words filed in the database; no cut-off is given here."}
{"smiles": "CCCCCCCCCCCC(=O)N[C@@H](CCCCN)C(=O)NCCCCCCCC(=O)N[C@@H](CCCCN)C(=O)NCCCCCCCC(=O)N[C@@H](CCCCN)C(=O)NCCCCCCCC(=O)N[C@@H](CCCCN)C(=O)NCCCCCCCC(=O)N[C@@H](CCCCN)C(=O)NCCCCCCCC(=O)N[C@@H](CCCCN)C(=O)NCCCCCCCC(=O)N[C@@H](CCCCN)C(=O)NCCCCCCCC(=O)N[C@@H](CCCCN)C(N)=O", "values": [{"measurement": "MIC", "setting": "[1]", "result": 25, "unit": "µM"}, {"measurement": "MIC", "setting": "[2]", "result": 12.5, "unit": "µM"}, {"measurement": "MIC", "setting": "[3]", "result": 3.1, "unit": "µM"}, {"measurement": "inhibition (INH)", "setting": "[4]", "result": 99, "unit": "%"}, {"measurement": "MIC", "setting": "[5]", "result": "> 50", "unit": "µM"}, {"measurement": "MIC", "setting": "[6]", "result": 3.1, "unit": "µM"}, {"measurement": "MIC", "setting": "[7]", "result": 6.3, "unit": "µM"}, {"measurement": "MIC", "setting": "[8]", "result": 3.1, "unit": "µM"}, {"measurement": "MIC", "setting": "[9]", "result": 50, "unit": "µM"}, {"measurement": "MIC", "setting": "[10]", "result": 12.5, "unit": "µM"}, {"measurement": "MIC", "setting": "[11]", "result": "> 50", "unit": "µM"}, {"measurement": "Activity", "setting": "[12]", "result": "inactive"}, {"measurement": "MIC", "setting": "[13]", "result": 12.5, "unit": "µM"}, {"measurement": "MIC", "setting": "[14]", "result": 50, "unit": "µM"}, {"measurement": "MIC", "setting": "[15]", "result": "> 50", "unit": "µM"}, {"measurement": "MIC", "setting": "[16]", "result": 1.6, "unit": "µM"}, {"measurement": "MIC", "setting": "[17]", "result": 3.1, "unit": "µM"}, {"measurement": "MIC", "setting": "[18]", "result": 6.3, "unit": "µM"}, {"measurement": "MIC", "setting": "[19]", "result": 3.1, "unit": "µM"}, {"measurement": "MIC", "setting": "[20]", "result": 3.1, "unit": "µM"}, {"measurement": "inhibition (INH)", "setting": "[21]", "result": 99, "unit": "%"}, {"measurement": "MIC", "setting": "[22]", "result": 3.1, "unit": "µM"}, {"measurement": "Ratio", "setting": "[23]", "result": 32}, {"measurement": "MIC", "setting": "[24]", "result": "> 50", "unit": "µM"}, {"measurement": "MIC", "setting": "[25]", "result": 1.6, "unit": "µM"}, {"measurement": "Ratio", "setting": "[26]", "result": 16}, {"measurement": "MIC", "setting": "[27]", "result": 12.5, "unit": "µM"}, {"measurement": "MIC", "setting": "[28]", "result": 1.6, "unit": "µM"}, {"measurement": "MIC", "setting": "[29]", "result": "> 50", "unit": "µM"}]}
